Laboratory results published in patent US8093286B2, “Methods for treatment with bucindolol based on genetic targeting” (The Regents of the University of Colorado, a body corporate, priority 2004, dated 2012).
Entries after “also recorded” stand apart in the source; their conditions may differ. Where a name gives a salt, the structure may show the parent alone.

Experiments:
β1-Arg389 receptor = molecular target: T1, β1-Arg389 receptor (Homo sapiens, UniProt P08588, G389R); assay: norepinephrine-stimulated cAMP accumulation in stably transfected CHW cells (functional antagonism); format: cell-based
T1 construct: expressed in transfected cells
T1 sequence (P08588 whole entry G389R): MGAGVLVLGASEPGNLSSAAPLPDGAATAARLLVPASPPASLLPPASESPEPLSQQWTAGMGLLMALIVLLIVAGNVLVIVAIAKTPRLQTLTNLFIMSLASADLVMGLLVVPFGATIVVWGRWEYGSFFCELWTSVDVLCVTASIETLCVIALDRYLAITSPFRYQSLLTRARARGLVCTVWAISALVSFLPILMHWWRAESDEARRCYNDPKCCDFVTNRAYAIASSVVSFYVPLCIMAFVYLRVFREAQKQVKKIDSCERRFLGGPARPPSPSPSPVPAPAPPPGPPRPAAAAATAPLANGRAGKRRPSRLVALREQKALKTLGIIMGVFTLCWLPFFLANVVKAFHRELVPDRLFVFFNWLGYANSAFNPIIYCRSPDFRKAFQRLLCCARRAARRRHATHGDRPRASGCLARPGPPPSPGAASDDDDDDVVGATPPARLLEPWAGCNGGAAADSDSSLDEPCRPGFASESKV
Description: (§1) Chinese hamster fibroblasts (CHW cells) were stably transfected with the human Arg389 and Gly389 cDNAs as previously described (Mason et al., 1999). Lines with equivalent levels of expression as determined by radioligand binding were studied to ascertain the antagonist effect of bucindolol on norepinephrine stimulated cAMP accumulation. Cells in monolayers were treated with 10 μM norepinephrine in the absence and presence of various concentrations of bucindolol for 20 min at 37° C. and [^3H]cAMP isolated by column chromatography (Salomon, 1991).
(§2) Chinese hamster fibroblasts were stably transfected using constructs previously described so as to separately express the human β1-Arg389 or β1-Gly389 receptors. β1AR expression, and affinity for bucindolol, were determined by radioligand binding studies with ^125I-cyanopindolol (125I-CYP), using 1 μM propranolol to define nonspecific binding as described. Whole cell cAMP accumulation studies were carried out by the [^3H]-adenine method using two lines with equivalent expression levels of the two receptors as indicated. Attached cells were exposed to vehicle (basal), 10 μM norepinephrine or 10 uM norepinephrine with the indicated concentrations of bucindolol for 15 min at 37° C.

β1-Gly389 receptor = molecular target: T2, β1-Gly389 receptor (Homo sapiens, UniProt P08588); assay: as above; format: cell-based
T2 construct: expressed in transfected cells
T2 sequence (P08588 whole entry): as the sequence (P08588 whole entry G389R) above, with R389G counted along it
Description: as §1, §2

[1] = system: failing human right ventricular trabeculae; assay: contractile response of isolated right ventricular trabeculae from failing human hearts; details: hydrochloride
Description: Nonfailing hearts were obtained from local potential organ donors whose hearts were not transplanted because of physical or ABO blood type incompatibility. Failing hearts were from patients with end-stage heart failure due to ischemic or non-ischemic dilated cardiomyopathies who underwent cardiac transplantation. The demographic characteristics of the hearts are provided in Results. The contractile response of isolated, field stimulated, human trabeculae was assessed as previously described {1755; a-c}. Trabeculae of uniform size (1 to 2×6 to 8 mm) were mounted in 80 ml muscle bath chambers in Tyrode's solution at pH 7.45 bubbled with 95% O2-5% CO2 at 36^0. After equilibration, a tension of 75% of Lmax was applied to each individual trabeculum. Field-stimulation by a 5-ms pulse at 10% above threshold was then applied, and after equilibration full dose-response curves to isoproterenol, bucindolol or xamoterol were performed using the indicated concentrations and application of increasing doses every 5 minutes. In experiments in which forskolin was used to enhance signal transduction {e,f}, 10^−6 M of this adenylyl cyclase activator was applied to the tissue baths 15-20 minutes prior to the performance of dose-response curves, and allowed to achieve stability of tension response. Systolic tension at each dose was calculated as the stimulated tension in mN/mm^2 minus baseline tension. The maximum tension, concentration of isoproterenol that produced 50% of the maximum developed tension (EC50) and curve slope were computed by nonlinear repeated measures analysis of covariance. […] Statistical methods were employed as described in Examples 3 and 4.

[2] = bucindolol alone up to 10 μM, hydrochloride

SMILES: CC(C)(Cc1c[nH]c2ccccc12)NCC(O)COc1ccccc1C#N (stereo not drawn) [bucindolol, (2-{2-hydroxy-3{{2-(3-indolyl)-1,1-dimethylethyl}amino}propoxy}-benzonitrile hydrochloride)]
- inhibition at 0.1 µM (β1-Arg389 receptor; 0.1 μM bucindolol, read-out: inhibition of the Arg389 cAMP response): ~80%
- maximal decrease of cAMP (β1-Arg389 receptor; 10 μM norepinephrine + bucindolol, Arg389 cells, N=4): 435 ± 80 fmol/mL
- stimulation of cAMP by bucindolol alone (intrinsic sympathomimetic activity) (β1-Arg389 receptor; [2]): no stimulation of cAMP; also recorded: no evidence for intrinsic sympathomimetic activity
- maximal decrease of cAMP (β1-Gly389 receptor; 10 μM norepinephrine + bucindolol, Gly389 cells, N=4): 115 ± 23 fmol/mL
- stimulation of cAMP by bucindolol alone (intrinsic sympathomimetic activity) (β1-Gly389 receptor; [2]): no stimulation of cAMP; also recorded: no evidence for intrinsic sympathomimetic activity
- intrinsic sympathomimetic activity (increase in force) ([1]; failing hearts, with and without forskolin): no significant increase in force development; also recorded: no evidence of ISA
- inotropic effect on systolic force (dose-response curve slope) ([1]; β1AR Arg/Arg, forskolin pretreatment): inverse agonist; also recorded: negative curve slope
- inotropic effect on systolic force (dose-response curve slope) ([1]; β1AR Gly carriers, forskolin pretreatment): neutral antagonist; also recorded: not different from 0
- inotropic effect on systolic force (dose-response curve slope) ([1]; β1AR Gly carriers, without forskolin): inverse agonist; also recorded: negative inotropic effect
